Publication PMC7902631, “An ESCRT-dependent step in fatty acid transfer from lipid droplets to mitochondria through VPS13D−TSG101 interactions” (Nature Communications, 2021)

How the values were obtained:
[1] = target: T1, VPS13D-LTD (Homo sapiens, UniProt Q5THJ4); assay: native PAGE co-migration, fluorescence; format: binding; conditions: labelled compound; 4 °C, 3 h; 1.5 mg/ml protein
T1 construct: lipid transfer domain, residues 1-320; pET28a-6xHis-SUMO fusion, tag cleavage not mentioned; expressed in E. coli (DE3), Ni-NTA purified
T1 sequence (Q5THJ4 1-320): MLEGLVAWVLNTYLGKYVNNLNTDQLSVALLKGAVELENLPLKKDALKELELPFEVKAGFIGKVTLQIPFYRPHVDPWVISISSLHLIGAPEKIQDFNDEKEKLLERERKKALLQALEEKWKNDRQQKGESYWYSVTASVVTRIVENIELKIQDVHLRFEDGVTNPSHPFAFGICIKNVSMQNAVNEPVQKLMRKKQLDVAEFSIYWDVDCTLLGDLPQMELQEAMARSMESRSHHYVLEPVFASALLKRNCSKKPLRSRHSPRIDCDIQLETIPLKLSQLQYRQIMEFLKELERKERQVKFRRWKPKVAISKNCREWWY

[2] = target: VAB-ΔPSAP-GFP (human); assay: co-IP; GFP-Trap agarose beads (ChromoTek) on lysates of HEK293 cells, by the manufacturer's protocol; GFP-tagged protein held, partner detected by western blot (anti-TSG101 or anti-Halo); 5% input
[3] = target: T1, VPS13D-LTD; assay: competition with BODIPY-C16, native PAGE; format: binding; conditions: unlabeled, non-BSA-conjugated palmitic acid; competitor of BODIPY-C16

O=C(O)CCCCCCCCCCCNc1ccc([N+](=O)[O-])c2nonc12 [C12, NBD-C12]
native PAGE co-migration, fluorescence [1]: purified VPS13D-LTD could bind NBD-labeled fatty acids C12 (NBD-C12)

Halo-TSG101 (from UniProt Q99816 1-390) (natural protein)
reduction of the interaction against VAB-GFP [2]: 60%

CCCCCCCCCCCCCCCC(=O)O [palmitic acid]
competition with BODIPY-C16, native PAGE [3]: palmitic acid, but not OA, could sufficiently outcompete BODIPY-C16 for binding to VPS13D-LTD
